Laboratory results: patent publication US7728028B2, “Substituted imidazoline compounds” (Gruenenthal GmbH, priority 2005, dated 2010)
Read-outs that look alike come from different tables or passages of the source.

Target: T1, human μ-opiate receptor (Homo sapiens, UniProt P35372)
T1 construct: purchased PerkinElmer Life Sciences, Zaventem, Belgium RB-HOM; host or cells: CHO-K1 cells (recombinant expression; membrane preparation)
Test: Affinity for the human μ-opiate receptor ([3H]-naloxone displacement, SPA)
Settings: test substance 1 μmole/l, inhibition of specific [3H]-naloxone binding, CHO-K1 membranes, read-out: μ-Opioid receptor, % inhibition [1 μM]
Method: Investigations on the Efficacy of the Compounds According to the Invention Method for Determining the Affinity for the Human μ-Opiate Receptor
The receptor affinity for the human μ-opiate receptor is determined in a homogeneous batch in microtiter plates. For this purpose dilution series of the substances to be tested are incubated with a receptor membrane preparation (15-40 μg protein/250 μl incubation batch) of CHO-K1 cells, which express the human μ-opiate receptor (RB-HOM receptor membrane preparation from PerkinElmer Life Sciences, Zaventem, Belgium), in the presence of 1 nmole/l of the radioactive ligand [^3H]-naloxone (NET719, PerkinElmer Life Sciences company, Zaventem, Belgium) and 1 mg WGA-SPA beads (wheat germ agglutinin SPA beads from Amersham/Pharmacia, Freiburg, Germany) in a total volume of 250 μl for 90 minutes at room temperature. 50 mmole/l of Tris-HCl supplemented with 0.06% bovine serum albumin is used as incubation buffer. In order to determine the non-specific binding, 100 μmole/l of naloxone is additionally added. After the end of the 90 minutes' incubation time the microtiter plates are centrifuged for 20 minutes at 1000 g and the radioactivity is measured in a beta counter (Microbeta-Trilux, PerkinElmer Wallac, Freiburg, Germany). The percentage displacement of the radioactive ligand from its binding to the human μ-opiate receptor at a concentration of the test substances of 1 μmole/l is determined and is given as percentage inhibition of the specific binding.

T1 sequence (P35372 whole entry): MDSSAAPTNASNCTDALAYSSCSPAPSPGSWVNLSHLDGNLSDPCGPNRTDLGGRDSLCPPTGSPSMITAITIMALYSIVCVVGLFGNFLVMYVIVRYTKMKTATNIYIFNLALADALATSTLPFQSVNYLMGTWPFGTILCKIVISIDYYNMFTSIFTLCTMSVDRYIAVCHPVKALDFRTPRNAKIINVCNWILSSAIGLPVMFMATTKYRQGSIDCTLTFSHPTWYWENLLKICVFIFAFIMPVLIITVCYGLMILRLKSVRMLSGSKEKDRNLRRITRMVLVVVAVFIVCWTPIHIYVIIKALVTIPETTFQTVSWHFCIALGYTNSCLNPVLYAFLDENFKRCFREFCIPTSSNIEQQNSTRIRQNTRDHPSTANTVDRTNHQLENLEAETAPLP

Compound | inhibition at 1 µM (Table 2, Examples 11-161) | inhibition at 1 µM (Table 1, aldehydes)
CCCN1C=NC(CCC(=O)OC)(C(=O)OC)C1CC1CCC(C(c2ccc(Cl)cc2)N(C)C)CC1 (stereo not shown) [Example 61, 5-{4-[(4-chlorophenyl)-dimethylaminomethyl]-cyclohexylmethyl}-4-(2-methoxycarbonylethyl)-1-propyl-4,5-dihydro-1H-imidazole-4-carboxylic acid methyl ester] | 93% | 
COC(=O)C1(CSCc2ccccc2)N=CN(C2CCCCC2)C1CC1CCC(C(c2ccc(Cl)cc2)N(C)C)CC1 (stereo not shown) [Example 56, 4-benzylsulfanylmethyl-5-{4-[(4-chlorophenyl)-dimethylaminomethyl]-cyclohexylmethyl}-1-cyclohexyl-4,5-dihydro-1H-imidazole-4-carboxylic acid methyl ester] | 97% | 
CCCCN1C=NC(CCCC)(C(=O)OC)C1C1CCC(C(c2ccc(Cl)cc2)N(C)C)CC1 (stereo not shown) [Example 33, 1,4-dibutyl-5-{4-[(4-chlorophenyl)-dimethylaminomethyl]-cyclohexyl}-4,5-dihydro-1H-imidazole-4-carboxylic acid methyl ester] | 85% | 
CCCCN1C=NC(CSCc2ccccc2)(C(=O)OC)C1CC1CCC(C(c2cccc(F)c2)N(C)C)CC1 (stereo not shown) [Example 75, 4-benzylsulfanylmethyl-1-butyl-5-{4-[dimethylamino-(3-fluorophenyl)-methyl]-cyclohexylmethyl}-4,5-dihydro-1H-imidazole-4-carboxylic acid methyl ester] | 98% | 
CCCCN1C=NC(CCC(=O)OC)(C(=O)OC)C1CC1CCC(C(CCc2ccccc2)N(C)C)CC1 (stereo not shown) [Example 78, 1-butyl-5-[4-(1-dimethylamino-3-phenylpropyl)-cyclohexylmethyl]-4-(2-methoxycarbonylethyl)-4,5-dihydro-1H-imidazole-4-carboxylic acid methyl ester] | 67% | 
CCCN1C=NC(CC(C)C)(C(=O)OC)C1CC1CCC(C(c2ccc(Cl)cc2)N(C)C)CC1 (stereo not shown) [Example 26, 5-{4-[(4-chlorophenyl)-dimethylaminomethyl]-cyclohexylmethyl}-4-isobutyl-1-propyl-4,5-dihydro-1H-imidazole-4-carboxylic acid methyl ester] | 96% | 
CCC(C)C1(C(=O)OC)N=CN(C2CCCCC2)C1CC1CCC(C(c2cccc(F)c2)N(C)C)CC1 (stereo not shown) [Example 148, 4-sec-butyl-1-cyclohexyl-5-{4-[dimethylamino-(3-fluorophenyl)-methyl]-cyclohexylmethyl}-4,5-dihydro-1H-imidazole-4-carboxylic acid methyl ester] | 95% | 
CCCCN1C=NC(C(=O)OC)(C(C)CC)C1CC1CCC(C(c2ccc(Cl)cc2)N(C)C)CC1 (stereo not shown) [Example 88, 1-butyl-4-sec-butyl-5-{4-[(4-chlorophenyl)-dimethylaminomethyl]-cyclohexylmethyl}-4,5-dihydro-1H-imidazole-4-carboxylic acid methyl ester] | 98% | 
CCCCN1C=NC(Cc2ccc(Cl)cc2)(C(=O)OC)C1C1CCC(C(c2ccc(Cl)cc2)N(C)C)CC1 (stereo not shown) [Example 32, 1-butyl-4-(4-chlorobenzyl)-5-{4-[(4-chlorophenyl)-dimethylaminomethyl]-cyclohexyl}-4,5-dihydro-1H-imidazole-4-carboxylic acid methyl ester] | 74% | 
CCCN1C=NC(CSCc2ccccc2)(C(=O)OC)C1C1CCC(C(c2cccc(F)c2)N(C)C)CC1 (stereo not shown) [Example 58, 4-benzylsulfanylmethyl-5-{4-[dimethylamino-(3-fluorophenyl)-methyl]-cyclohexyl}-1-propyl-4,5-dihydro-1H-imidazole-4-carboxylic acid methyl ester] | 81% | 
CCCC1(C(=O)OC)N=CN(CCc2ccccc2)C1CC1CCC(C(c2ccc(F)cc2)N(C)C)CC1 (stereo not shown) [Example 132, 5-{4-[dimethylamino-(4-fluorophenyl)-methyl]-cyclohexylmethyl}-1-phenethyl-4-propyl-4,5-dihydro-1H-imidazole-4-carboxylic acid methyl ester] | 98% | 
COC(=O)CCC1(C(=O)OC)N=CN(CCc2ccccc2)C1CC1CCC(C(c2ccc(F)cc2)N(C)C)CC1 (stereo not shown) [Example 83, 5-{4-[dimethylamino-(4-fluorophenyl)-methyl]-cyclohexylmethyl}-4-(2-methoxycarbonylethyl)-1-phenethyl-4,5-dihydro-1H-imidazole-4-carboxylic acid methyl ester] | 77% | 
CN(C)C(c1cccc(F)c1)C1CCC(CC=O)CC1 (stereo not shown) [Example 10b, {4-[dimethylamino-(3-fluorophenyl)-methyl]-cyclohexyl}-acetaldehyde] |  | 67%
CCCCN1C=NC(CCCC)(C(=O)OC)C1CC1CCC(C(c2ccc(Cl)cc2)N(C)C)CC1 (stereo not shown) [Example 36, 1,4-dibutyl-5-{4-[(4-chlorophenyl)-dimethylaminomethyl]-cyclohexylmethyl}-4,5-dihydro-1H-imidazole-4-carboxylic acid methyl ester] | 97% | 
CCCCC1(C(=O)OC)N=CN(CCc2ccccc2)C1C1CCC(C(c2cccc(F)c2)N(C)C)CC1 (stereo not shown) [Example 39, 4-butyl-5-{4-[dimethylamino-(3-fluorophenyl)-methyl]-cyclohexyl}-1-phenethyl-4,5-dihydro-1H-imidazole-4-carboxylic acid methyl ester] | 88% | 
COC(=O)C1(CSCc2ccccc2)N=CN(C2CCCCC2)C1C1CCC(C(c2cccc(F)c2)N(C)C)CC1 (stereo not shown) [Example 116, 4-benzylsulfanylmethyl-1-cyclohexyl-5-{4-[dimethylamino-(3-fluorophenyl)-methyl]-cyclohexyl}-4,5-dihydro-1H-imidazole-4-carboxylic acid methyl ester] | 101% | 
CCCCC1(C(=O)OC)N=CN(C2CCCCC2)C1C1CCC(C(c2ccc(Cl)cc2)N(C)C)CC1 (stereo not shown) [Example 16, 4-butyl-5-{4-[(4-chlorophenyl)-dimethylaminomethyl]-cyclohexyl}-1-cyclohexyl-4,5-dihydro-1H-imidazole-4-carboxylic acid methyl ester] | 92% | 
CCCCN1C=NC(CCC(=O)OC)(C(=O)OC)C1CC1CCC(C(c2ccc(F)cc2)N(C)C)CC1 (stereo not shown) [Example 76, 1-butyl-5-{4-[dimethylamino-(4-fluorophenyl)-methyl]-cyclohexylmethyl}-4-(2-methoxycarbonylethyl)-4,5-dihydro-1H-imidazole-4-carboxylic acid methyl ester] | 93% | 
CCCN1C=NC(CCC)(C(=O)OC)C1CC1CCC(C(c2cccc(F)c2)N(C)C)CC1 (stereo not shown) [Example 111, 5-{4-[dimethylamino-(3-fluorophenyl)-methyl]-cyclohexylmethyl}-1,4-dipropyl-4,5-dihydro-1H-imidazole-4-carboxylic acid methyl ester] | 90% | 
COC(=O)C1(CCSC)N=CN(C2CCCCC2)C1CC1CCC(C(CCc2ccccc2)N(C)C)CC1 (stereo not shown) [Example 109, 1-cyclohexyl-5-[4-(1-dimethylamino-3-phenylpropyl)-cyclohexylmethyl]-4-(2-methylsulfanyl-ethyl)-4,5-dihydro-1H-imidazole-4-carboxylic acid methyl ester] | 87% | 
CCCCC1(C(=O)OC)N=CN(C2CCCCC2)C1C1CCC(C(c2cccc(F)c2)N(C)C)CC1 (stereo not shown) [Example 13, 4-butyl-1-cyclohexyl-5-{4-[dimethylamino-(3-fluorophenyl)-methyl]-cyclohexyl}-4,5-dihydro-1H-imidazole-4-carboxylic acid methyl ester] | 94% | 
CCCN1C=NC(CC(C)C)(C(=O)OC)C1C1CCC(C(c2ccc(Cl)cc2)N(C)C)CC1 (stereo not shown) [Example 24, 5-{4-[(4-chlorophenyl)-dimethylaminomethyl]-cyclohexyl}-4-isobutyl-1-propyl-4,5-dihydro-1H-imidazole-4-carboxylic acid methyl ester] | 89% | 
COC(=O)C1(CSCc2ccccc2)N=CN(Cc2ccccc2)C1C1CCC(C(c2ccc(Cl)cc2)N(C)C)CC1 (stereo not shown) [Example 98, 1-benzyl-4-benzylsulfanylmethyl-5-{4-[(4-chlorophenyl)-dimethylaminomethyl]-cyclohexyl}-4,5-dihydro-1H-imidazole-4-carboxylic acid methyl ester] | 95% | 
CCC(C)C1(C(=O)OC)N=CN(CCc2ccccc2)C1CC1CCC(C(c2cccc(F)c2)N(C)C)CC1 (stereo not shown) [Example 81, 4-sec-butyl-5-{4-[dimethylamino-(3-fluorophenyl)-methyl]-cyclohexylmethyl}-1-phenethyl-4,5-dihydro-1H-imidazole-4-carboxylic acid methyl ester] | 76% | 
CCCCN1C=NC(CSCc2ccccc2)(C(=O)OC)C1CC1CCC(C(CCc2ccccc2)N(C)C)CC1 (stereo not shown) [Example 79, 4-benzylsulfanylmethyl-1-butyl-5-[4-(1-dimethylamino-3-phenylpropyl)-cyclohexylmethyl]-4,5-dihydro-1H-imidazole-4-carboxylic acid methyl ester] | 79% | 
